Measurements from patent publication US7579373B2, “Targeted bisplatinum polyamines as pro-drugs: selective release of platinum” (Virginia Commonwealth University, priority 2002, dated 2009).
Where two headings read alike, the source gives them in different places.

Key:
A2780 = assay: SRB growth inhibition assay, A2780; assay type: cell-based, human; details: 96 h exposure
Procedure: (§1) Cell culture. A2780, A2780/CDDP, CH1, CH1/CDDP, 41M and 41M/CDDP cell lines were used in this study and maintained according to published procedures. (8,9).
(§2) Growth inhibition assay. The Sulforhodamine B (SRB) assay was used to determine growth inhibition potency of platinum drugs (10). The cells were seeded in 96-well microtitre plates at 3-8×10^3 cells/well in 160 μL growth medium and allowed to attach overnight. Platinum agents were then added after serial dilution in quadruplicate wells and exposed to cells for 2 or 96 hours. After the 2 hours drug incubations were complete, plates were washed free of drug with phosphate-buffered saline (PBS) and then refed with normal growth medium for a further 94 hours. Quantitation of cell growth in treated and control wells was then assessed using 0.4% SRB dissolved in 1% acetic acid. IC50 values were determined graphically.
(§3) Of special interest is the remarkably low value for 4 (Fmoc) in A2780 cells.

41M/CDDP = assay: SRB growth inhibition assay, 41M/CDDP; assay type: cell-based, human; details: for IC50: 96 h exposure, read-out: 96H IC50 CH1/CDDP; for RF CH1/CDDP: IC50 resistant/IC50 parent line, 96 h
Procedure: as §1, §2, §3

A2780/CDDP = assay: SRB growth inhibition assay, A2780/CDDP; assay type: cell-based, human; details: for IC50: 96 h exposure; for RF A2780/CDDP: IC50 resistant/IC50 parent line, 96 h
Procedure: as §1
as §2, with “graphically. […]” for “graphically.”

CH1 = assay: SRB growth inhibition assay, CH1; assay type: cell-based, human; details: 96 h exposure
Procedure: as §1, §2, §3

41M = assay: SRB growth inhibition assay, 41M; assay type: cell-based, human; details: 96 h exposure
Procedure: as §1, §2, §3

CH1/CDDP = assay: SRB growth inhibition assay, CH1/CDDP; assay type: cell-based, human; details: for IC50: 96 h exposure; for RF CH1/CDDP: IC50 resistant/IC50 parent line, 96 h
Procedure: as §1
as §2, with “graphically. […]” for “graphically.”

L1210/0 [1] = assay: Cellular accumulation in L1210/0 cells; assay type: cell-based, murine; details: 2 hours of exposure; (±SE), 3 experiments of 2 determinations
Procedure: (§4) Cellular accumulation. The cellular accumulation assays followed published procedures (7). Briefly, cells were resuspended at 10^7/mL in media supplemented with […]. Platinum complexes were added, and samples were incubated at 37° C. in 5% CO2. At 0 and 2 hours aliquots were removed for determination of cell concentrations and for measurement of platinum content. For the latter, aliquots were washed three times in cold phosphate buffered saline, resuspended in 1% Triton-X in water, and sonicated. Platinum content was measured by flameless atomic absorption spectroscopy.
(§5) The cellular accumulation of the blocked Pt compound 2 was also investigated. […] Based solely on charge considerations the BOC-spermidine with a charge of 2+ should have cellular uptake similar to 1,1/t,t (n=6). The enhanced uptake could be explained by some hydrolysis in media or plasma producing small amounts of the protonated 1,1/t,t-spermidine. Considering the potency of polynuclear-polyamine compounds, a small percentage of hydrolysis could have a significant impact on in vivo activity.

L1210/DDP [2] = assay: Growth inhibition in L1210/DDP cells; assay type: cell-based, murine; details: for IC50: 2 hours of exposure, mean (±SE), 3 experiments of 2 determinations; for RF, resistance factor: IC50 L1210/DDP / IC50 L1210/0, 2 hours of exposure
L1210/0 [3] = assay: Growth inhibition in L1210/0 cells; assay type: cell-based, murine; details: 2 hours of exposure; mean (±SE), 3 experiments of 2 determinations
Text: To examine the pro-drug potential in a biological setting, a comparison of the pharmacological properties of the blocked polyamine compounds in L1210 murine leukemia cells was undertaken.

L1210/DDP [4] = assay: Cellular accumulation in L1210/DDP cells; assay type: cell-based, murine; details: 2 hours of exposure; (±SE), 3 experiments of 2 determinations
Procedure: as §4, §5

[5] = assay type: physicochemical; details: for Rate constant for the deprotection: first order; for % 1 (percentage of 1 of the overall integration in the chromatogram after incubation): uncorrected
Procedure: Analyses of the products and hydrolysis studies were carried out on an analytical Beckman System Gold Nouveau HPLC instrument with UV detection at 215 nm. A Lichrosphere RP-8 column (5 μm particle size, dimensions 250 mm×4 mm) was used with a solvent gradient from water/methanol 97:3 (0.05 M NaClO4, 1% NaCl) to water/methanol 70:30 (0.05 M NaClO4, 2% NaCl).
Hydrolysis Study. For the hydrolysis experiments 10^−3 mMol complex were dissolved in 1 mL of nanopure water. The pH of the solutions was adjusted by addition of HNO3 (0.1 M, 0.01 M) and NaOH (0.1 M, 0.01 M), respectively. The samples were incubated in a water bath at 37° C. and aliquots of 20 μL were taken from the bulk solution for HPLC analysis. The pH values of the samples were controlled in regular intervals and readjusted if necessary.
The hydrolysis of the protective groups of compounds 2-4 was monitored at 37° C. at various pH values. […] In addition, the chromatogram of 2 contained a peak of a minor impurity (ca 0.4%) which remained unchanged during the timecourse of the reaction. Deprotection of the secondary amino function leads to the appearance of a signal for the unprotected spermidine complex 1 that, as a consequence of the increased cationic charge, is well separated from the signal of the N4 blocked precursor. The area percentage of the integrated signal of the unprotected species is taken as an estimate for the amount of hydrolysis at a given timepoint. To allow for a more accurate quantitative comparison of results, the extinction coefficients for compounds 1-4 were determined at 215 nm (Table 1). The integral values of the blocked compounds have been corrected for the higher absorbance of these species at the observed wavelength compared to the unprotected species 1. Table 2 provides a summary of the amount of hydrolysis for all samples before and after the correction. Rate constants were calculated based on the corrected integral values.
The hydrolysis of the blocking groups of on the N4 position of compounds 5-7 was monitored at 37° C. over a pH range of 6-8.
The amount of 1,1/t,t-spermidine released over time is depicted in FIG. 8. No other products were detected, trifluoroacetate, originating from the hydrolysis reaction, is not retained on the column under the present conditions and coelutes with the other anions (Cl^− from 5, NO3^− from pH adjustment). In order to obtain rate constants for the conversion of 7 to 1,1/t,t-spermidine, the integral values of the chromatograms were corrected for the different absorption of the species at the observed wavelength (ε215: 1, 3.64·10^3; 5, 7.62·10^3; 6, 10.4·10^3; 7, 9.46·10^3 L.Mol^−1 .cm^−1). Concentrations were calculated based on the assumption that the sum of the concentrations of both species at every time point equals the original concentration of 7 at the start of the experiment. First order rate constants were obtained using the program MicroMath Scientist Version 2.01. The results are summarized in Table 3 and compared with values obtained for BOC and Fmoc protected spermidine complexes.

[6] = pH 5, 37° C., time 42 d (2), 30 d (3), 41 d (4)
[7] = pH 6, 37° C., time 42 d (2), 42 d (3), 41 d (4)
[8] = pH 7, 37° C., time 25 d (2), 41 d (4)

SMILES	IC50 (A2780)	IC50 (A2780/CDDP)	RF A2780/CDDP (A2780/CDDP)	IC50 (CH1)	IC50 (41M)	IC50 (CH1/CDDP)	RF CH1/CDDP (CH1/CDDP)	Accumulation L1210/0 (L1210/0 [1])	IC50 (L1210/DDP [2])	RF, resistance factor (L1210/DDP [2])	IC50 (L1210/0 [3])	Accumulation L1210/DDP (L1210/DDP [4])	% 1, corrected for the different extinction coefficients at 215 nm [5, 6]	% 1, corrected for the different extinction coefficients at 215 nm [5, 7]	Rate constant for the deprotection ([5]; pH 6, 37° C.)	Rate constant for the deprotection ([5]; pH 7, 37° C.)	further results
CC(=O)N(CCCN)CCCCN.N.N.N.N.[Cl-].[Cl-].[Cl][Pt+].[Cl][Pt+] [Compound 5, [{trans-Pt(NH3)2Cl}2-μ-N^4—CH3CO-spermidine-N^1,N^8]Cl2]	14 µM	54 µM	3.9	7.4 µM	17.5 µM	12.5 µM	1.7	–	–	–	–	–	–	–	–	–	IC50 (41M/CDDP): 24 µM; RF CH1/CDDP (41M/CDDP): 1.4
N.N.N.N.NCCCCCCN.[Cl][Pt+].[Cl][Pt+] [1,1/tt, [trans-{PtCl(NH3)2}2H2N(CH2)6NH2]^2+, reference compound]	–	–	–	–	–	–	–	3.8 (0.70) attamol Pt complex/cell	16 µM	4.3	3.7 µM	0.67 (0.21) attamol Pt complex/cell	–	–	–	–	–
CC(C)(C)OC(=O)N(CCCN)CCCCN.N.N.N.N.[Cl-].[Cl-].[Cl][Pt+].[Cl][Pt+] [Compound 2, [{trans-Pt(NH3)2Cl}2——N^4-BOC-spermidine-N^1,N^8]Cl2]	2.1 µM	19 µM	9.0	8 µM	17 µM	11 µM	1.4	5.0 (0.63) attamol Pt complex/cell	4.6 µM	3.7	1.25 µM	4.8 (0.75) attamol Pt complex/cell	[15.1] %	[13.8] %	4.29 (±0.05) · 10^−8 s^−1	3.12 (±0.04) · 10^−8 s^−1	Rate constant for the deprotection ([5]; pH 5, 37° C.): 4.65 (±0.04) · 10^−8 s^−1; Rate constant for the deprotection ([5]; pH 6.6, 37° C.): 3.51 (±0.05) · 10^−8 s^−1; % 1, corrected for the different extinction coefficients at 215 nm [5, 8]: [6.6] %
N.N.N.N.NCCCCN(CCCN)C(=O)OCc1ccccc1.[Cl-].[Cl-].[Cl][Pt+].[Cl][Pt+] [Compound 3, [{trans-Pt(NH3)2Cl}2— —N^4-CBz-spermidine-N^1,N^8]Cl2]	24 µM	100 µM	4.2	25 µM	> 100 µM	43 µM	1.7	–	–	–	–	–	[0.13] %	[0.12] %	–	–	% 1 (percentage of 1 of the overall integration in the chromatogram after incubation) [5, 6]: 0.05%; amount of 1 detected in the samples ([5]; pH 5 and 6, 37° C., over the complete timecourse): below 0.1%; % 1 (percentage of 1 of the overall integration in the chromatogram after incubation) [5, 7]: 0.05%
N.N.N.N.NCCCCN(CCCN)C(=O)OCC1c2ccccc2-c2ccccc21.[Cl-].[Cl-].[Cl][Pt+].[Cl][Pt+] [Compound 4, [{trans-Pt(NH3)2Cl}2——N^4-Fmoc-spermidine-N^1,N^8]Cl2]	0.84 µM	65 µM	77	46 µM	> 100 µM	62 µM	1.3	–	–	–	–	–	[1.0] %	[3.0] %	9.74 (±0.88) · 10^−9 s^−1	6.12 (±0.09) · 10^−8 s^−1	Rate constant for the deprotection ([5]; pH 5, 37° C.): 3.99 (±0.96) · 10^−9 s^−1; % 1 (percentage of 1 of the overall integration in the chromatogram after incubation) [5, 6]: 0.14%; hydrolyzed species observed (HPLC profile) ([5]; pH 5 and 6, 37° C.): only minor amounts; % 1 (percentage of 1 of the overall integration in the chromatogram after incubation) [5, 7]: 0.45%; % 1, corrected for the different extinction coefficients at 215 nm [5, 8]: [19.6] %; % 1 (percentage of 1 of the overall integration in the chromatogram after incubation) [5, 8]: 3.4%; free spermidine complex released (HPLC profile) ([5]; pH 7 and 8, 37° C.): considerable amounts; % 1, corrected for the different extinction coefficients at 215 nm ([5]; pH 8, 37° C., time 30 d (4)): [35.2] %; Rate constant for the deprotection ([5]; pH 8, 37° C.): 1.44 (±0.07) · 10^−7 s^−1; % 1 (percentage of 1 of the overall integration in the chromatogram after incubation) ([5]; pH 8, 37° C., time 30 d (4)): 7.3%
N.N.[Cl][Pt][Cl] [cisplatin, reference compound]	1.6 µM	12 µM	7.5	0.34 µM	2.3 µM	1.1 µM	3.2	5.0 (0.89) attamol Pt complex/cell	59 µM	44	1.3 µM	1.5 (0.76^ attamol Pt complex/cell	–	–	–	–	–
N.N.N.N.NCCCCN(CCCN)C(=O)C(F)(F)F.[Cl-].[Cl-].[Cl][Pt+].[Cl][Pt+] [Compound 7, [{trans-Pt(NH3)2Cl}2-μ-N^4—CF3CO-spermidine-N^1,N^8]Cl2]	6.8 µM	46 µM	6.8	2.4 µM	3.7 µM	5 µM	2.1	–	–	–	–	–	–	–	4.44 (±0.11) · 10^−8 s^−1	2.73 (±0.06) · 10^−7 s^−1	Rate constant for the deprotection ([5]; pH 8, 37° C.): 1.79 (±0.03) · 10^−6 s^−1; IC50 (41M/CDDP): 19 µM; RF CH1/CDDP (41M/CDDP): 5.1
